The record followed here is ChEMBL document CHEMBL3407338, “Synthesis and structure-activity relationship of novel 1,4-diazabicyclo[2.2.2]octane derivatives as potent antimicrobial agents” (Eur J Med Chem, 2015).

Usually IC50 stands for the concentration that gives 50% inhibition. Low values mean inhibition by little substance, high ones a need for much substance. The term MIC denotes the smallest concentration in the dilution series that meets the test's criterion for growth inhibition. Higher therefore signals a less susceptible organism.

Molecules are shown by their SMILES. Converted amounts (≈) assume the structure as drawn.

The test system of test [1] is RPMI-8226. Description: Cytotoxicity against human RPMI8226 cells after 72 hrs by MTT assay. The format is cell-based. Particulars: RPMI-8226, 72 h.
Test [2] deals with MEF. Description: Cytotoxicity against mouse MEF cells after 72 hrs by MTT assay. The format is cell-based. For orientation: Formazan colour is commonly taken as a measure of viable cells.
The nature of test [3]: Cytotoxicity against mouse LMTK cells after 72 hrs by MTT assay. Format: cell-based. Particulars: L-M(TK-).
Test [4] concerns Candida albicans. In words: Antimicrobial activity against Candida albicans ATCC 32354 at 1 ug/ml after 24 hrs by agar diffusion method. Format: functional. Particulars: ATCC 32354, 24 h, read-out: DIZ.
Test [5] concerns Pseudomonas aeruginosa. Description: Antimicrobial activity against 10^4 CFU/ml Pseudomonas aeruginosa ATCC 9027 after 22 hrs by serial microdilution method. Particulars: ATCC 9027, 22 h. The format is functional. A general note: In broth dilution the organism is exposed to a series of concentrations in liquid medium.
Test [6] relates to Staphylococcus aureus. Description: Antimicrobial activity against Staphylococcus aureus ATCC 25923 at 1 ug/ml after 24 hrs by agar diffusion method. Format: functional. Particulars: ATCC 25923, 24 h, read-out: DIZ.
Test [7] relates to Staphylococcus aureus. In words: Antimicrobial activity against 10^4 CFU/ml Staphylococcus aureus ATCC 25923 after 22 hrs by serial microdilution method. The format is functional. Particulars: ATCC 25923, 22 h.
Test [8] concerns Staphylococcus aureus. Description: Antimicrobial activity against 10^7 CFU/ml Staphylococcus aureus ATCC 25923 after 22 hrs by serial microdilution method. Format: functional. Particulars: ATCC 25923, 22 h.
The test system of test [9] is Pseudomonas aeruginosa. Description: Antimicrobial activity against 10^7 CFU/ml Pseudomonas aeruginosa ATCC 9027 after 22 hrs by serial microdilution method. The format is functional. Particulars: ATCC 9027, 22 h.
Test [10] concerns Escherichia coli. In words: Antimicrobial activity against 10^4 CFU/ml Escherichia coli ATCC 25922 after 22 hrs by serial microdilution method. Format: functional. Particulars: ATCC 25922, 22 h.
Test [11] has as its system Salmonella enterica. In words: Antimicrobial activity against 10^7 CFU/ml Salmonella enterica ATCC 14028 after 22 hrs by serial microdilution method. Format: functional. Particulars: ATCC 14028, 22 h.
The test system of test [12] is Bacillus subtilis. In words: Antimicrobial activity against 10^7 CFU/ml Bacillus subtilis ATCC 6633 after 22 hrs by serial microdilution method. Particulars: ATCC 6633, 22 h. The format is functional.
The subject of test [13] is Salmonella enterica. Description: Antimicrobial activity against 10^4 CFU/ml Salmonella enterica ATCC 14028 after 22 hrs by serial microdilution method. The format is functional. Particulars: ATCC 14028, 22 h.
In test [14] the test system is Bacillus subtilis. Description: Antimicrobial activity against 10^4 CFU/ml Bacillus subtilis ATCC 6633 after 22 hrs by serial microdilution method. The format is functional. Particulars: ATCC 6633, 22 h.
In test [15] the test system is Bacillus subtilis. In words: Antimicrobial activity against Bacillus subtilis ATCC 6633 at 1 ug/ml after 24 hrs by agar diffusion method. The format is functional. Particulars: ATCC 6633, 24 h, read-out: DIZ. (Agar diffusion results depend on both activity and mobility in agar.)
Test [16] relates to Escherichia coli. Description: Antimicrobial activity against Escherichia coli ATCC 25922 at 1 ug/ml after 24 hrs by agar diffusion method. Particulars: ATCC 25922, 24 h, read-out: DIZ. The format is functional.
Test [17] deals with Candida albicans. Description: Antimicrobial activity against 10^7 CFU/ml Candida albicans ATCC 32354 after 22 hrs by serial microdilution method. The format is functional. Particulars: ATCC 32354, 22 h.
Test [18] relates to Candida albicans. Description: Antimicrobial activity against 10^4 CFU/ml Candida albicans ATCC 32354 after 22 hrs by serial microdilution method. Particulars: ATCC 32354, 22 h. Format: functional.
Test [19] deals with Escherichia coli. In words: Antimicrobial activity against 10^7 CFU/ml Escherichia coli ATCC 25922 after 22 hrs by serial microdilution method. Particulars: ATCC 25922, 22 h. Format: functional.
Test [20] has as its system Pseudomonas aeruginosa. Description: Antimicrobial activity against Pseudomonas aeruginosa ATCC 9027 at 1 ug/ml after 24 hrs by agar diffusion method. Format: functional. Particulars: ATCC 9027, 24 h, read-out: DIZ.
Test [21] concerns Salmonella enterica. In words: Antimicrobial activity against Salmonella enterica ATCC 14028 at 1 ug/ml after 24 hrs by agar diffusion method. Particulars: ATCC 14028, 24 h, read-out: DIZ. The format is functional.
The test system of test [22] is HEK-293T. Description: Cytotoxicity against human HEK293T cells after 72 hrs by MTT assay. Format: cell-based.

Consider `CC[C@@]1(O)C(=O)OCc2c1cc1n(c2=O)Cc2cc3ccccc3nc2-1` [CAMPTOTHECIN], for which the results for the IC50 in test [1], in test [2] and in test [3] were 2.05 µg/mL (≈ 5.88 µM), 5.87 µg/mL (≈ 16.9 µM) and 11.7 µg/mL (≈ 33.6 µM), respectively.
As for `CCCCCCCCC[N+]12CC[N+](CCCCC[N+]34CC[N+](CCCCCCCCC)(CC3)CC4)(CC1)CC2.[Br-].[Br-].[Br-].[Br-]`, the zone of inhibition at 1 µg/mL is 10 mm in [4]; 10 mm in [6]; 12 mm in [15]; 10 mm in test [16]; 0 mm in test [20]; 9 mm in test [21]. The MBC is 12.5 µg/mL in [5]; 25 µg/mL in test [7]; 50 µg/mL in test [8]; 100 µg/mL in test [9]; 12.5 µg/mL in test [10]; 50 µg/mL in test [11]. In addition, the MBC in [12] is 25 µg/mL; in [13], 50 µg/mL; in test [14], 6.3 µg/mL; in [17], less than 1.6 µg/mL; in [18] it was less than 1.6 µg/mL; in test [19], 25 µg/mL. Also, the MIC was 12.5 µg/mL in test [5]; 12.5 µg/mL in [7]; 12.5 µg/mL in [8]; 50 µg/mL in test [9]; 6.3 µg/mL in test [10]; 25 µg/mL in test [11]. Moreover, the MIC is 25 µg/mL in [12]; 12.5 µg/mL in [13]; 6.3 µg/mL in [14]; less than 1.6 µg/mL in test [17]; less than 1.6 µg/mL in test [18]; 6.3 µg/mL in [19].
For `CCCCCCCCCCCCCC[N+]12CC[N+](CCCCC[N+]34CC[N+](CCCCCCCCCCCCCC)(CC3)CC4)(CC1)CC2.[Br-].[Br-].[Br-].[Br-]`, the zone of inhibition at 1 µg/mL in test [4] is 0 mm; in [6] it was 8 mm; in [15], 7 mm; in test [16], 7 mm; in [20] it was 6 mm; in test [21], 7 mm. Besides, the MBC in test [5] was 50 µg/mL; in test [7] it was 100 µg/mL; in [8], greater than 100 µg/mL; in test [9], greater than 100 µg/mL; in test [10], 50 µg/mL; in test [11], greater than 100 µg/mL. Also, the MBC in test [12] is 50 µg/mL; in test [13], greater than 100 µg/mL; in [14], 12.5 µg/mL; in [17], 25 µg/mL; in test [18], 25 µg/mL; in [19] it was greater than 100 µg/mL. Moreover, the MIC in test [5] was 50 µg/mL; in [7], 6.3 µg/mL; in test [8] it was 50 µg/mL; in test [9], greater than 100 µg/mL; in [10] it was 25 µg/mL; in test [11], 100 µg/mL. The MIC in [12] amounted to 12.5 µg/mL; in [13], 100 µg/mL; in test [14], 12.5 µg/mL; in test [17], 25 µg/mL; in [18], 25 µg/mL; in test [19] it was 50 µg/mL. Also, the IC50 in [1] came out at 252 µg/mL; in test [2], 127 µg/mL; in test [3] it was 219 µg/mL; in [22], 400 µg/mL.
Regarding `CC[N+]12CC[N+](CCCCC[N+]34CC[N+](CC)(CC3)CC4)(CC1)CC2`, the zone of inhibition at 1 µg/mL in [4], in test [6], in test [15], in [16], in test [20] and in test [21] was 0 mm in each case.
`CCCCCCC[N+]12CC[N+](CCCCC[N+]34CC[N+](CCCCCCC)(CC3)CC4)(CC1)CC2`: the zone of inhibition at 1 µg/mL in [4] was found to be 0 mm; in [6] it was 5 mm; in test [15], 5 mm; in test [16], 4 mm; in test [20] it was 0 mm; in [21], 0 mm.
With `O=C(O)c1cn(C2CC2)c2cc(N3CCNCC3)c(F)cc2c1=O` [CIPROFLOXACIN], the zone of inhibition at 1 µg/mL in test [4] worked out at 0 mm; in test [6] it was 25 mm; in [15] it was 30 mm; in test [16], 30 mm; in test [20], 20 mm; in test [21] it was 35 mm. In addition, the MBC in [5] is 3.1 µg/mL (≈ 9.36 µM); in test [7], less than 0.8 µg/mL; in [8] it was less than 0.8 µg/mL; in test [9], 3.1 µg/mL (≈ 9.36 µM); in [10] it was less than 0.8 µg/mL; in [11] it was less than 0.8 µg/mL. For the same compound, the MBC is less than 0.8 µg/mL in [12]; less than 0.8 µg/mL in test [13]; less than 0.8 µg/mL in test [14]; 100 µg/mL (≈ 302 µM) in test [17]; greater than 100 µg/mL in test [18]; less than 0.8 µg/mL in [19]. Besides, the MIC was 1.6 µg/mL (≈ 4.83 µM) in test [5]; less than 0.8 µg/mL in test [7]; less than 0.8 µg/mL in [8]; 1.6 µg/mL (≈ 4.83 µM) in test [9]; less than 0.8 µg/mL in test [10]; less than 0.8 µg/mL in [11]. The MIC in [12] was less than 0.8 µg/mL; in test [13], less than 0.8 µg/mL; in test [14], less than 0.8 µg/mL; in [17], 100 µg/mL (≈ 302 µM); in test [18] it was greater than 100 µg/mL; in [19], less than 0.8 µg/mL.
As to `CCC[N+]12CC[N+](CCCCC[N+]34CC[N+](CCC)(CC3)CC4)(CC1)CC2`, the zone of inhibition at 1 µg/mL in [4], in test [6], in test [15], in [16], in test [20] and in [21] was 0 mm in each case.
On to `CCCCCCCC[N+]12CC[N+](CCCCC[N+]34CC[N+](CCCCCCCC)(CC3)CC4)(CC1)CC2.[Br-].[Br-].[Br-].[Br-]`, for which the zone of inhibition at 1 µg/mL in [4] came out at 0 mm; in test [6], 8 mm; in test [15], 10 mm; in [16], 4 mm; in test [20], 0 mm; in test [21], 4 mm. In addition, the MBC in test [5] was 50 µg/mL; in [7], 100 µg/mL; in [8], greater than 100 µg/mL; in test [9] it was greater than 100 µg/mL; in test [10], 50 µg/mL; in test [11], greater than 100 µg/mL. Moreover, the MBC was 100 µg/mL in test [12]; 100 µg/mL in test [13]; 50 µg/mL in test [14]; less than 1.6 µg/mL in test [17]; less than 1.6 µg/mL in test [18]; 100 µg/mL in [19]. Further, the MIC was 25 µg/mL in test [5]; 12.5 µg/mL in test [7]; 50 µg/mL in test [8]; greater than 100 µg/mL in [9]; 12.5 µg/mL in [10]; 100 µg/mL in [11]. Besides, the MIC in test [12] is 50 µg/mL; in test [13] it was 100 µg/mL; in test [14], 25 µg/mL; in [17] it was less than 1.6 µg/mL; in test [18], less than 1.6 µg/mL; in [19], 25 µg/mL.
